Data as given in publication PMC11944477, “Isolation of Allosteric Tryptase Inhibitor from Methanol Extract of Rhubarb and Enhancement of Its Tryptase Inhibitory Activity by Compounds That Were Screened by In Silico Screening” (Molecules, 2025).

Experiments:
asthma patients = test system: asthma patients; parameters: method as in PMID 31371445, PMID 10197050; conditions: clinical trial for asthma, abandoned; cited from earlier work
[1] = molecular target: T1, Tryptase from a human lung (Homo sapiens, UniProt P20231); experiment: Measurement of inhibitory activity against tryptase (chromogenic substrate, absorbance at 415 nm); assay type: biochemical; conditions: for IC50: inhibitor alone, 30 min preincubation, mean ± SE (n = 3)
T1 construct: Tryptase from a human lung was purchased from Sigma-Aldrich; purchased Sigma-Aldrich; host or cells: human lung tissue
Experimental: (§1) Tryptase from a human lung was purchased from Sigma-Aldrich (St. Louis, MO, USA). The activity of tryptase was measured in 100 mM Tris-HCl buffer, pH 8.0, 100 mM glycerol, 0.02 mg/mL heparin sodium salt and 167 µM N-(p-Tosyl)-Gly-Pro-Lys 4-nitroanilide acetate salt (Sigma-Aldrich) as a substrate. Prior to addition of the substrate, the inhibitor was preincubated with the enzyme for 30 min at room temperature to allow the establishment of the enzyme–inhibitor complex. The substrate was then added, and after incubation for 30 min at 37 °C, the enzyme activity was measured from the increase in absorbance at 415 nm. The assays were performed using a 384-well microplate (CELLSTAR 384-well 781182, Greiner Bio-One, Kremsmünster, Austria) and absorbance was measured using a Powerscan 4 plate reader (DS pharma biomedical, Osaka, Japan). The inhibition ratio was calculated using the following equation: inhibition ratio %=1−AE+S+I−AS−AI+Ablank/AE+S−AS×100
A(x): absorbance intensity (415 nm); E: enzyme; S: substrate; I: inhibitor; blank: buffer.
(§2) The inhibitory activity against tryptase and the trypsin of leupeptin and PB8GG’ were measured at 0.1–100 µM, along with that of ellagitannins (carpinin B or carpinin E) isolated by our group at 20–50 µM. The inhibitory activity of a combination of various concentrations of PB8GG’ and 50 µM ellagitannins was also assayed.
(§3) Drawing curves of the inhibition and calculation of IC50 were performed by GraphPad Prism (Version 9.5.1).

[2] = molecular target: T2, Trypsin from a hog pancreas (Sus scrofa, UniProt P00761); experiment: Measurement of inhibitory activity against trypsin (Bz-L-Arg-pNA substrate, absorbance at 415 nm); assay type: biochemical
T2 construct: Trypsin from a hog pancreas was purchased from Nacalai Tesque; purchased Nacalai Tesque; host or cells: hog pancreas
Experimental: Trypsin from a hog pancreas was purchased from Nacalai Tesque, Kyoto, Japan. The activity of trypsin was measured in 200 mM Tris-HCl buffer, pH 7.8, 20 mM CaCl2 and 385 µM Benzoyl-L-arginine p-nitroanilide monohydrochloride (Bz-L-Arg-pNA·HCl) (Peptide Institute, Osaka, Japan) as a substrate. Prior to addition of the substrate, the inhibitor was preincubated with the enzyme for 10 min at room temperature to allow the establishment of the enzyme–inhibitor complex. The substrate was then added, and after incubation for 60 min at 37 °C, the enzyme activity was measured from the increase in absorbance at 415 nm. The assays were performed using a 384-well microplate and absorbance was measured using a Powerscan 4 plate reader.
as §2, §3

[3] = test system: Tryptase from a human lung; experiment: Kinetic analysis of tryptase inhibition (Lineweaver-Burk plot, Morrison's formula); assay type: biochemical
Experimental: as §1
Ki^app was calculated using the Morrison’s formula with GraphPad Prism. The mean value of Km from the kinetic analysis (described in next Section 4.5) was substituted as a constant in the formula.
For kinetic studies of tryptase, inhibition assays were carried out as described in the preceding paragraph. […] The kinetic parameters were calculated by curve fitting using GraphPad Prism.

T1 sequence (P20231 31-275): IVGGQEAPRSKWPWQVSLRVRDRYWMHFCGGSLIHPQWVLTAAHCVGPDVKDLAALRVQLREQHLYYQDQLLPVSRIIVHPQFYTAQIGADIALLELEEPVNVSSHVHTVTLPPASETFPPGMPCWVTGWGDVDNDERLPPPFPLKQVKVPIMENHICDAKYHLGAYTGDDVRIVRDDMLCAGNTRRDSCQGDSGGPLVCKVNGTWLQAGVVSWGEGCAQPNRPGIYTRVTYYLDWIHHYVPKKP
T2 sequence (P00761 9-231): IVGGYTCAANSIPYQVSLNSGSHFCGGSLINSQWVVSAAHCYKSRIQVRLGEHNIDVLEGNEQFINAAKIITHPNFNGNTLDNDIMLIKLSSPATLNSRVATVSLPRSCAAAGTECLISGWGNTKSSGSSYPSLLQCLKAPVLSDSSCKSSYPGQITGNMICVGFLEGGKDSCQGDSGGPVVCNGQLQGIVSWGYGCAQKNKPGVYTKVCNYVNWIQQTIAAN

| Structure (SMILES) | adverse effect in treated patients (asthma patients) | inhibition of tryptase activity ([1]; at 5 μM) | inhibition of tryptase activity ([1]; at the dose of 1–3 μM) | IC50 [1] [µM] | inhibitory activity against trypsin ([2]; tested at 0.1–100 µM) | mode of inhibition of tryptase ([3]; Lineweaver–Burk plot) | Ki ([3]; Morrison's formula, GraphPad Prism, read-out: inhibition constant Ki app) [µM] | IC50 ([2]; 10 min preincubation, mean ± SE (n = 3)) [µM] |
| --- | --- | --- | --- | --- | --- | --- | --- | --- |
| NC(=O)[C@@H]1CCCN1C(=O)[C@H](CCCN=C(N)N)NC(=O)c1ccc2ccccc2c1O [APC-366] | caused bronchospasms |  |  |  |  |  |  |  |
| O=C(O[C@@H]1Cc2c(cc(O)c(C3c4c(O)cc(O)cc4O[C@H](c4ccc(O)c(O)c4)[C@H]3OC(=O)c3cc(O)c(O)c(O)c3)c2O)O[C@@H]1c1ccc(O)c(O)c1)c1cc(O)c(O)c(O)c1 (stereo partly drawn) [PB8GG’, procyanidin B8 3,3′-di-O-gallate] |  | clearly inhibited | very weakly inhibited | 7.78 ± 0.17 | little inhibitory activity | mixed-type non-competitive | 5.02 ± 0.99 |  |
| CC(=O)N[C@@H](CC(C)C)C(=O)N[C@@H](CC(C)C)C(=O)N[C@H](C=O)CCCNC(=N)N [leupeptin, reference compound] |  |  |  | 14.9 ± 1.25 |  |  |  | 8.4 ± 0.31 |
